Laboratory results: US11465986B2, “Crystal form of c-MET inhibitor and salt form thereof and preparation method therefor” (FUJIAN AKEYLINK BIOTECHNOLOGY CO., LTD., priority 2018, dated 2022)
Several values for one entry are separate records, joined by “and”; a condition that tells them apart may be missing. Equal entries are not always repeated. Entries after “also recorded” stand apart in the source; their conditions may differ.

Columns and labels:
Format in all cases: physicochemical
[1] = Stability test of the crystal forms (HPLC impurity content); details: for Impurity content, relative retention time 0.93 / Impurity content, relative retention time 1.07 / Total impurities / Impurity content, relative retention time 0.99 / Impurity content, relative retention time 1.39 / Impurity content, relative retention time 1.48 / Impurity content, relative retention time 1.05 / Impurity content, relative retention time 1.43: form A
Protocol: The method for High Performance Liquid Chromatograph (HPLC) in the present disclosure
Instrument Model: Agilent 1200 High Performance Liquid Chromatograph
The analysis method is as follows: […]
About 10 mg of the crystal form B of the compound represented by formula (II) was weighted and placed under stability test conditions, and the samples were collected and analyzed after 5 days, 10 days, and 1 month.
About 10 mg of the crystal form C of the compound represented by formula (III) was weighted and placed under stability test conditions, and the samples were collected and analyzed after 5 days, 10 days, and 1 month respectively.

[2] = as above; details: form A, 5 days
[3] = Hygroscopicity study (weight gain over saturated ammonium chloride solution, 25° C., 24 hours)
Protocol: The hygroscopicity was evaluated using the scales in the following Table 4:
3 dry glass weighing bottles with stopper (outer diameter of 50 mm, height of 30 mm) were placed in a desiccator having saturated ammonium chloride solution placed at the bottom, the weighing bottles were left open, and the desiccator was covered with lid, placed in a thermostat setting at 25° C. overnight.
The weighing bottles were took out and accurately weighed, the weight data were noted as m11, m12 and m13 respectively.
An appropriate amount of the crystal form A of the compound represented by formula (I), was spread in the weighed weighing bottles (the thickness of the sample was about 1 mm), and then accurately weighed, the weight data were noted as m21, m22 and m23, respectively.
The open weighing bottles and the bottle stoppers were placed in a desiccator having saturated ammonium chloride solution placed at the bottom, and the desiccator was covered with a lid, placed in a thermostat setting at 25° C. for 24 hours.
After standing for 24 hours, the weighing bottles were closed with the stoppers, then accurately weighed, and the weight data were noted as m31, m32 and m33.
Hygroscopicity weight gain was calculated, the calculation formula was as follows: Percentage gain=100%×(m3−m2)/(m2−m1)

[4] = Solubility test in different solvents; details: 25° C.±2° C.
Protocol: (§1) 10 mg of the crystal form A of the compound represented by formula (I) was placed into a glass bottle, 1 mL of solvent was added thereto and the bottle was shaken vigorously for 30 seconds every 5 minutes at 25° C.±2° C., the dissolution was observed over 30 minutes. The corresponding data were recorded in the table.
as §1, with “For insoluble samples, another 1” for “10”, “an appropriate” for “1 mL of”, “thereto,” for “thereto”, “Table 10.” for “the table.”

[5] = 40° C. Relative humidity 75%, 1 month
[6] = 40° C. Relative humidity 75%, 2 months
[7] = 40° C. Relative humidity 75%, 10 days
[8] = 60° C. Relative humidity 75%, 1 month
[9] = 60° C. Relative humidity 75%, 2 months
[10] = 60° C. Relative humidity 75%, 10 days
[11] = Light (total illuminance = 1.2 × 106 Lux · hr/near ultraviolet = 200 w · hr/m^2)
[12] = Relative humidity 92.5%, 5 days
[13] = Relative humidity 92.5%, 10 days

In the case of `C[C@H](c1cccc(-c2ncc(OCC3CCN(C)CC3)cn2)c1)n1cc(-c2cc(C#N)ccn2)cc(F)c1=O` [crystal form A of the compound represented by formula (I)], the “Impurity content, relative retention time 0.93” value ([1]; 0 day) is reported as 0.14%, the “Impurity content, relative retention time 1.07” value ([1]; 0 day) is reported as 0.52% and the Total impurities ([1]; 0 day) is reported as 0.67%. The “Impurity content, relative retention time 0.93” value [1, 5] was 0.12%, the “Impurity content, relative retention time 1.07” value [1, 5] was 0.45% and the Total impurities [1, 5] was 0.63%. For the same compound, the “Impurity content, relative retention time 0.93” value [1, 6] was 0.15%, the “Impurity content, relative retention time 1.07” value [1, 6] was 0.52% and the Total impurities [1, 6] was 0.66%. The “Impurity content, relative retention time 0.93” value [1, 7] was 0.14%, the “Impurity content, relative retention time 1.07” value [1, 7] was 0.5% and the Total impurities [1, 7] was 0.58%. For the same compound, the “Impurity content, relative retention time 0.93” value [1, 8] was 0.13%, the “Impurity content, relative retention time 1.07” value [1, 8] was 0.49% and the Total impurities [1, 8] was 0.62%. The “Impurity content, relative retention time 0.93” value [1, 9] was 0.17%, the “Impurity content, relative retention time 1.07” value [1, 9] was 0.59% and the Total impurities [1, 9] was 0.75%. For the same compound, the “Impurity content, relative retention time 0.93” value [1, 10] was 0.14%, the “Impurity content, relative retention time 1.07” value [1, 10] was 0.53% and the Total impurities [1, 10] was 0.67%. The “Impurity content, relative retention time 0.93” value ([1]; 60° C., 5 days) was 0.12%, the “Impurity content, relative retention time 0.99” value ([1]; 60° C., 5 days) was 0.13% and the “Impurity content, relative retention time 1.07” value ([1]; 60° C., 5 days) was 0.47%. For the same compound, the “Impurity content, relative retention time 1.39” value ([1]; 60° C., 5 days) was 0.17%, the “Impurity content, relative retention time 1.48” value ([1]; 60° C., 5 days) was 0.1% and the “Impurity content, relative retention time 0.93” value ([1]; 60° C., 10 days) was 0.12%. For the same compound, the “Impurity content, relative retention time 0.99” value ([1]; 60° C., 10 days) was 0.19%, the “Impurity content, relative retention time 1.05” value ([1]; 60° C., 10 days) was 0.14% and the “Impurity content, relative retention time 1.07” value ([1]; 60° C., 10 days) was 0.45%. For the same compound, the “Impurity content, relative retention time 1.39” value ([1]; 60° C., 10 days) was 0.41%, the “Impurity content, relative retention time 1.43” value ([1]; 60° C., 10 days) was 0.11% and the “Impurity content, relative retention time 1.48” value ([1]; 60° C., 10 days) was 0.23%. For the same compound, the Total impurities ([1]; 60° C., 10 days) was 1.64%, the “Impurity content, relative retention time 0.93” value [1, 11] was 0.11% and the “Impurity content, relative retention time 0.99” value [1, 11] was 0.29%. The “Impurity content, relative retention time 1.05” value [1, 11] was 0.8%, the “Impurity content, relative retention time 1.07” value [1, 11] was 0.46% and the “Impurity content, relative retention time 1.39” value [1, 11] was 3.98%. For the same compound, the “Impurity content, relative retention time 1.43” value [1, 11] was 1.18%, the “Impurity content, relative retention time 1.48” value [1, 11] was 1.62% and the Total impurities [1, 11] was 13.45%. The “Impurity content, relative retention time 0.93” value [1, 12] was 0.14%, the Total impurities [1, 12] was 0.67% and the “Impurity content, relative retention time 0.93” value [1, 13] was 0.14%. For the same compound, the “Impurity content, relative retention time 1.07” value [1, 13] was 0.52%, the Total impurities [1, 13] was 0.67% and the “Stability, conclusion in words” value ([1]; stress conditions (high temperature, high humidity, light)) was “good stability”. For the same compound, the Total impurities ([2]; 60° C.) was 0.99%, the “Impurity content, relative retention time 1.07” value ([2]; Relative humidity 92.5%) was 0.53% and the “Average value of percentage gain (average hygroscopicity)” value ([3]; 25° C., 24 hours over saturated ammonium chloride solution, mean of 3 samples) was 0.060%. For the same compound, the “Percentage gain (hygroscopic weight gain), single samples” value ([3]; 25° C., 24 hours over saturated ammonium chloride solution, samples No. 1-3) was 0.03% and 0.08% and 0.07%, the Hygroscopicity scale ([3]; classified by the average weight gain) was “no or almost no hygroscopicity” and the Solubility classification ([4]; 0.1N HCl) was “Soluble”. The Solubility classification ([4]; 0.1N NaOH) was “practically insoluble or insoluble; also recorded: Practically insoluble”, the Solubility classification ([4]; Acetonitrile) was “Very slightly soluble” and the Solubility classification ([4]; Diethylamine) was “practically insoluble or insoluble; also recorded: Practically insoluble”. For the same compound, the Solubility classification ([4]; Ethanol) was “very slightly soluble”, the Solubility classification ([4]; Ethyl acetate) was “Very slightly soluble” and the Solubility classification ([4]; N-Methylpyrrolidone) was “Very soluble”. The Solubility classification ([4]; Tetrahydrofuran) was “Sparingly soluble”, the Solubility classification ([4]; Trifluoroacetic acid) was “Sparingly soluble” and the Solubility classification ([4]; acetone) was “Slightly soluble”. For the same compound, the Solubility classification ([4]; n-Hexane) was “practically insoluble or insoluble; also recorded: Practically insoluble” and the Solubility classification ([4]; water) was “Very soluble”.
